Assay results reported in patent publication US5670527A, “Pyridyl imidazole compounds and compositions” (SmithKline Beecham Corporation, priority 1995, dated 1997).

Each compound was assayed on human PGHS-2 protein expression in LPS stimulated human monocytes (assay: Prostoglandin endoperoxide synthase-2 (PGHS-2) assay). Settings: rank order potency similar to that for inhibiting cytokine production.
Format: cell-based
Procedure: The followiong assay describes a method for determining the inhibitory effects of compounds of Formula (I) on human PGHS-2 protein expression in LPS stimulated human monocytes
Human peripheal blood monocytes were isolated from buffy coats by centrifugation through Ficoll and Percoll gradients. Cells were seeded at 2×10^6 /well in 24 well plates and allowed to adhere for 1 hour in RPMI supplemented with 1% human AB serum, 20 mM L-glutamine, Penicillin-Streptomycin and 10 mM HEPES. Compounds were added at various concentrations and incubated at 37° C. for 10 minutes. LPS was added at 50 ng/well (to induce enzyme expression) and incubated overnight at 37° C. The supernatant was removed and cells washed once in cold PBS. The cells were lysed in 100 μl of cold lysis buffer(50 mM Tris/HCl pH 7.5, 150 mM NaCl, 1% NP40, 0.5% sodium deoxycholate, 0.1% SDS, 300 ug/ml DNAse, 0.1% TRITON X-100, 1 mM PMSF, 1 mM leupeptin, 1 mM pepstatin). The lysate was centrifuged (10;000×g for 10 min. at 4° C.) to remove debris and the soluble fraction was subjected to SDS PAGE. analysis (12% gel). Protein separated on the gel were transferred onto nitrocellulose membrane by electrophoretic means for 2 hours at 60 volts. The membrane was pretreated for one hour in PBS/0.1% Tween 20 with 5% non-fat dry milk. After washing 3 times in PBS/Tween buffer, the membrane was incubated with a 1:2000 dilution of a monospecific antiserum to PGHS-2 or a 1:1000 dilution of an antiserum to PGHs-1 in PBS/Tween with 1% BSA for one hour with continuous shaking. […] The membrane was then washed 3× in PBS/Tween and the ECL immunodetection system (Amersham) was used to detect the level of expression of prostaglandin endoperoxide synthases-2.
With `Fc1ccc(-c2nc3n(c2-c2ccncc2)CCS3)cc1` [6-(4-Fluorophenyl)-2,3-dihydro-5-(4-pyridinyl)imidazo [2,1-b]thiazole] the “inhibition of LPS induced PGHS-2 protein expression” value (“inhibition” below) was “active”.
For `C[C@@H]1C[C@H]2[C@@H]3CCC4=CC(=O)C=C[C@]4(C)[C@@]3(F)[C@@H](O)C[C@]2(C)[C@@]1(O)C(=O)CO` [Dexamethasone], the “inhibition” value was “active”.
With `Fc1ccc(-c2ncn(CCCN3CCOCC3)c2-c2ccncc2)cc1` [Example 1, 1-[3-(4-Morpholinyl)propyl]-4-(4-fluorophenyl)-5-(4-pyridyl)imidazole] the “inhibition” value was “active”.

Same assay, conditions: up to 10 uM
With `C[S+]([O-])c1ccc(-c2nc3n(c2-c2ccncc2)CCC3)cc1` (stereo not shown) [2-(4-Methylsulfinylphenyl)-3-(4-pyridyl)-6-7-dihydro-(5H)-pyrrolo[1,2-a]imidazole] the “inhibition” value was “inactive”.
For `CC(Cc1ccc(O)c(O)c1)C(C)Cc1ccc(O)c(O)c1` (stereo not shown) [NDGA], the “inhibition” value was “inactive”.
For `O=C1CCN(c2ccccc2)N1` [phenidone], the “inhibition” value was “inactive”.
In the case of `COc1ccc(C2CNC(=O)C2)cc1OC1CCCC1` (stereo not shown) [rolipram], the “inhibition” value is reported as “inactive”.
